Assay [1] relates to Mus musculus. The assay can be described thus: Down regulation of PI3K expression athymic BALB/c nude mouse xenografted with human MDA-MB-231 cells at 1.25 to 5 mg/kg, sc administered every two days for 28 days by Western blot analysis. In kind it is functional, organism-based.
The test system of assay [2] is MDA-MB-231. The assay can be described thus: Antiproliferative activity against human MDA-MB-231 cells assessed as reduction in cell viability after 24 hrs by MTT assay. Type of assay: functional, cell-based.
Assay [3] has as its system Mus musculus. The assay can be described thus: Induction of ERK phosphorylation in athymic BALB/c nude mouse xenografted with human MDA-MB-231 cells at 1.25 to 5 mg/kg, sc administered every two days for 28 days by Western blot analysis. In kind it is functional, organism-based.
Assay [4] deals with Mus musculus. The assay can be described thus: Increase in ERK expression in athymic BALB/c nude mouse xenografted with human MDA-MB-231 cells at 1.25 to 5 mg/kg, sc administered every two days for 28 days by Western blot analysis. In kind it is functional, organism-based.
Assay [5] has as its system MDA-MB-231. The assay can be described thus: Induction of apoptosis in human MDA-MB-231 cells assessed as increase in cleaved caspase 3 expression at 20 to 80 ug/ml by Western blot analysis. In kind it is functional, cell-based.
In assay [6] the test system is MDA-MB-231. The assay can be described thus: Induction of apoptosis in human MDA-MB-231 cells assessed as early apoptotic cells at 80 ug/ml after 24 hrs by Annexin-V-FITC/propidium iodide staining based FACS analysis relative to control. Type of assay: functional.
Assay [7] deals with MDA-MB-231. The assay can be described thus: Induction of apoptosis in human MDA-MB-231 cells assessed as increase in apoptotic cells after 24 hrs in presence of EGFR siRNA by Annexin-V-FITC/propidium iodide staining based FACS analysis. In kind it is functional, cell-based.
Assay [8] has as its system MDA-MB-231. The assay can be described thus: Antitumor activity against human MDA-MB-231 cells xenografted in athymic BALB/c nude mouse assessed as decrease in tumor volume at 1.25 to 5 mg/kg, […] administered every two days for 28 days measured post-last dose by caliper method. Type of assay: functional, organism-based.
The subject of assay [9] is Mus musculus. The assay can be described thus: Effect on RAF expression in athymic BALB/c nude mouse xenografted with human MDA-MB-231 cells at 1.25 to 5 mg/kg, sc administered every two days for 28 days by Western blot analysis. In kind it is functional, organism-based.
In assay [10] the test system is Mus musculus. The assay can be described thus: Effect on MEK expression in athymic BALB/c nude mouse xenografted with human MDA-MB-231 cells at 1.25 to 5 mg/kg, sc administered every two days for 28 days by western blot analysis. Type of assay: functional, organism-based.
For assay [11], the system named is MDA-MB-231. The assay can be described thus: Induction of apoptosis in human MDA-MB-231 cells assessed as increase in apoptotic cells after 24 hrs in presence of lapatinib by Annexin-V-FITC/propidium iodide staining based FACS analysis. In kind it is functional, cell-based.
The test system of assay [12] is Mus musculus. The assay can be described thus: Down regulation of RAS expression in athymic BALB/c nude mouse xenografted with human MDA-MB-231 cells at 1.25 to 5 mg/kg, sc administered every two days for 28 days by Western blot analysis. Type of assay: functional, organism-based.
Assay [13] concerns the target Epidermal growth factor receptor (Homo sapiens) (UniProt P00533). The assay can be described thus: Inhibition of EGFR phosphorylation in human MDA-MB-231 cells by Western blot analysis. Type of assay: cell-based.
Assay [14] relates to Mus musculus. The assay can be described thus: Down regulation of mTOR expression in athymic BALB/c nude mouse xenografted with human MDA-MB-231 cells at 1.25 to 5 mg/kg, sc administered every two days for 28 days by Western blot analysis. In kind it is functional, organism-based.
In assay [15] the test system is MDA-MB-231. The assay can be described thus: Induction of apoptosis in human MDA-MB-231 cells assessed as increase in late apoptotic cells at 20 to 40 ug/ml after 24 hrs by Annexin-V-FITC/propidium iodide staining based FACS analysis. In kind it is functional, cell-based.
In assay [16] the test system is Mus musculus. The assay can be described thus: Down regulation of AKT phosphorylation in athymic BALB/c nude mouse xenografted with human MDA-MB-231 cells at 1.25 to 5 mg/kg, sc administered every two days for 28 days by Western blot analysis. In kind it is functional, organism-based.
Assay [17] has as its system Epidermal growth factor receptor (Homo sapiens), P00533 [L858R]. The assay can be described thus: Inhibition of EGFR L858R mutant (unknown origin) using polyE4Y1 as substrate measured after 60 mins.
In assay [18] the test system is Mus musculus. The assay can be described thus: Effect on MEK phosphorylation in athymic BALB/c nude mouse xenografted with human MDA-MB-231 cells at 1.25 to 5 mg/kg, sc administered every two days for 28 days by western blot analysis. Type of assay: functional, organism-based.
Assay [19] deals with MDA-MB-231. The assay can be described thus: Induction of apoptosis in human MDA-MB-231 cells assessed as down regulation of PARP1 expression by Western blot analysis. Type of assay: functional, cell-based.

Each structure is given as a SMILES string. Active and inactive are the calls of the source. No cut-off for these calls is given here.

The record followed here is ChEMBL document CHEMBL4340533, “Discovery of an EGFR tyrosine kinase inhibitor from Ilex latifolia in breast cancer therapy” (Bioorg Med Chem Lett, 2019).

Sequence of Epidermal growth factor receptor (Homo sapiens) (P00533 whole entry): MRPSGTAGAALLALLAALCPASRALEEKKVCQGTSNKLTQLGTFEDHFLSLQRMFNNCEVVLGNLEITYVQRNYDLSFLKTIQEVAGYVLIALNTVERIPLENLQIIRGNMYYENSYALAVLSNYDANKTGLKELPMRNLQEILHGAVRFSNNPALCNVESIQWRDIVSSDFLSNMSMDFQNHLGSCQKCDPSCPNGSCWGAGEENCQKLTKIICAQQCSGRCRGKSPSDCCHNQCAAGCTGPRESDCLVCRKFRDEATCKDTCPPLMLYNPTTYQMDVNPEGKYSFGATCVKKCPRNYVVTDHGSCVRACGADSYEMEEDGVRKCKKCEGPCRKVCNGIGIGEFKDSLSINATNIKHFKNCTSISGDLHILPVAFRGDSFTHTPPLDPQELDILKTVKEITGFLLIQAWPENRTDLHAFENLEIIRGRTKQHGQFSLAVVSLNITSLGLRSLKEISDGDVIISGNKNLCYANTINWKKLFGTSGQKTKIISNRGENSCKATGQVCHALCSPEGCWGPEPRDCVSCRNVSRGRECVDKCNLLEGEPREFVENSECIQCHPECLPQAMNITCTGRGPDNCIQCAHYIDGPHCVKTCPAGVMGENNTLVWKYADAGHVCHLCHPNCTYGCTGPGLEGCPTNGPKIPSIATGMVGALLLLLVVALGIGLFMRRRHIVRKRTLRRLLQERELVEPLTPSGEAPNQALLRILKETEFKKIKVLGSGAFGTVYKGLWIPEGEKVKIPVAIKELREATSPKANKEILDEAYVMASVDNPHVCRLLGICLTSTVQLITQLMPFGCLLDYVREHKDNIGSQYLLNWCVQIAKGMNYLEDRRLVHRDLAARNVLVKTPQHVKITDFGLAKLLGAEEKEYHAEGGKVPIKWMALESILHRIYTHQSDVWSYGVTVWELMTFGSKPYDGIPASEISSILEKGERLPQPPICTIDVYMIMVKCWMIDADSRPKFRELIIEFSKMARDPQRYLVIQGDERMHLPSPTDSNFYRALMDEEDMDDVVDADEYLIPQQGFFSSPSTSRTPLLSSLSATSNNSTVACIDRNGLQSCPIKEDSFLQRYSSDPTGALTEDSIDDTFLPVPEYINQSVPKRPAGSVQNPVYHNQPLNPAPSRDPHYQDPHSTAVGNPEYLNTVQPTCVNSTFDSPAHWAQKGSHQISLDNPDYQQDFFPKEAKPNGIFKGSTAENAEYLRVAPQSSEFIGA
Sequence of Epidermal growth factor receptor (Homo sapiens), P00533 [L858R] (P00533 whole entry L858R): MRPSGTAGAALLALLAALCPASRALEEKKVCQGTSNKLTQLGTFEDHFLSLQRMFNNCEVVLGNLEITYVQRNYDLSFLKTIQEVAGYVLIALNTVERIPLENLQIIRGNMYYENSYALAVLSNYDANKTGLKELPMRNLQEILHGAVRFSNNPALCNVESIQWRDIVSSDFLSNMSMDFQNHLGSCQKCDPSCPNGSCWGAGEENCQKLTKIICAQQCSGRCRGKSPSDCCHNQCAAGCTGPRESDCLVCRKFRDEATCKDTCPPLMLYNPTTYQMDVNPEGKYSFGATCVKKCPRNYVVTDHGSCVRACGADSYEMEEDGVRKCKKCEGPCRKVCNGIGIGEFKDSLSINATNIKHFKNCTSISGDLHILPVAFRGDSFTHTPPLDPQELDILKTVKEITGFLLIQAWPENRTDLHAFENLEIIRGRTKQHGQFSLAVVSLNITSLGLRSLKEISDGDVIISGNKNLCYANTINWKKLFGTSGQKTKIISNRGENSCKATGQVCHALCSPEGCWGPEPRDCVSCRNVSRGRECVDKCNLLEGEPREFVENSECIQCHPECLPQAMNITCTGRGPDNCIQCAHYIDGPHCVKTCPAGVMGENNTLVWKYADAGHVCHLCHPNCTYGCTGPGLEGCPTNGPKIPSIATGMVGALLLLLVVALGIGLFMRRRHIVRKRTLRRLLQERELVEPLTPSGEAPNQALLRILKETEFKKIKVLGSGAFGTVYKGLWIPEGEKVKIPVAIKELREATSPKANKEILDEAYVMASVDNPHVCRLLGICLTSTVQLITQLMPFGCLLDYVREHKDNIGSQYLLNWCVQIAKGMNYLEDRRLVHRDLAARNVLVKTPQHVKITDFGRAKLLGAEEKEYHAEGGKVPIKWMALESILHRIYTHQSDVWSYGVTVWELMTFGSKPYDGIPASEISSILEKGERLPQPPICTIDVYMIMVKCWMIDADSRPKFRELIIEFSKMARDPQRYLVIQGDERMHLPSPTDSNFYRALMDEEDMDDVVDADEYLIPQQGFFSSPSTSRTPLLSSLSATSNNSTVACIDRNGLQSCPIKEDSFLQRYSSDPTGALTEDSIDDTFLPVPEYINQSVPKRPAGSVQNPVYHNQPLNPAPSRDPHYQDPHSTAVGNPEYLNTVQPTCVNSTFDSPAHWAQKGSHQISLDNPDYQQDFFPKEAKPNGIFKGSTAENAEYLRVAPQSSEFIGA

On to `C[C@H]1[C@H](C)CC[C@]2(C(=O)O)CC[C@]3(COC(=O)/C=C/c4ccc(O)cc4)C(=CC[C@@H]4[C@@]5(C)CC[C@H](O)C(C)(C)[C@@H]5CC[C@]43C)[C@H]12`, for which the outcome in assay [1], in assay [3], in assay [4], in [5], in [8] and in assay [12] was Active. The outcome in assay [14], in assay [15] and in assay [16] was Active. The figures for the Activity result in assay [2], in assay [6] and in assay [19] were “Dose-dependent effect”, 42.03% and “Dose-dependent effect”, respectively. In addition, the result in assay [7], in assay [9], in assay [10], in [11] and in [18] was inactive. Also, in assay [13], the inhibition result is “Active”. Also, the inhibition result in assay [17] was “Dose-dependent effect”.
